Values of other authors, collected in US9822391B2, “Methods for monitoring methotrexate therapy” (priority 2010, dated 2017).

How the values were obtained:
[1] = approximately 5-10% of individuals who do not metabolize MTX effectively; within the first few hours following once weekly administration; Chladek et al., 1998
[2] = target: AICAR transformylase (Homo sapiens, UniProt P31939); settings: relative to MTX; Allegra et al., 1987
Sequence of AICAR transformylase (P31939 whole entry, species assumed): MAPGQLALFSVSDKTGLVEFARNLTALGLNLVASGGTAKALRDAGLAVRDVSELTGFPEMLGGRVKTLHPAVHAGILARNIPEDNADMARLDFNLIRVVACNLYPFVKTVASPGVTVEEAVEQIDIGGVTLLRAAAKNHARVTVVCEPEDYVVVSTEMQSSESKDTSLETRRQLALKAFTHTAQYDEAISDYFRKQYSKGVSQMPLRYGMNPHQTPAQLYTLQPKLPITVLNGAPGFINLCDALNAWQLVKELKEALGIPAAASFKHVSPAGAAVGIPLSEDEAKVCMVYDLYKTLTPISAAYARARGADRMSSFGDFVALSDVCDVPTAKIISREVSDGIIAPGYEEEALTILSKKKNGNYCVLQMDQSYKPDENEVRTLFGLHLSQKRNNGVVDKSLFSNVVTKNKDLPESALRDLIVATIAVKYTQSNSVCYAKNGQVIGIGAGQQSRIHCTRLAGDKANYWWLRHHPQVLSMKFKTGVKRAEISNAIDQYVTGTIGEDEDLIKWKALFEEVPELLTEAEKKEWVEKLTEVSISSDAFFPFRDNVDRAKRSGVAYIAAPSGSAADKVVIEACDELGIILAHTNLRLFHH

Structure (SMILES): CN(Cc1cnc2nc(N)nc(N)c2n1)c1ccc(C(=O)N[C@@H](CCC(=O)O)C(=O)O)cc1 [MTX, Methotrexate]
- excretion of the drug in urine [1]: virtually the totality of the drug excreted unchanged in the urine

Structure (SMILES): CN(Cc1cnc2nc(N)nc(N)c2n1)c1ccc(C(=O)NC(CCC(=O)NC(CCC(=O)NC(CCC(=O)NC(CCC(=O)NC(CCC(=O)O)C(=O)O)C(=O)O)C(=O)O)C(=O)O)C(=O)O)cc1 (centres unmarked) [pentaglutamylated form of MTX]
- fold more potent than MTX itself against AICAR transformylase [2]: 2500 fold
